Consider six compounds from US12692229B2, “Masp-2 inhibitors and methods of use” (Omeros Corporation, priority 2019, dated 2026).

SMILES strings stand for the structures. pKi: −log10 of the molar value. Where a name gives a salt, the structure may show the parent alone. A value given as a limit tells only on which side of the number the result lay.

For orientation: pKi means −log10 of the Ki, conventionally taken in molar units. A higher pKi goes with a low Ki.

For the test, the target named is T1, MASP-2 (CCP1-CCP2-SP) (Homo sapiens, UniProt O00187).
T1 construct: 15 μL of Enzyme MASP-2 (CCP1-CCP2-SP) in Assay Buffer
T1 sequence (O00187 445-686 limits assumed): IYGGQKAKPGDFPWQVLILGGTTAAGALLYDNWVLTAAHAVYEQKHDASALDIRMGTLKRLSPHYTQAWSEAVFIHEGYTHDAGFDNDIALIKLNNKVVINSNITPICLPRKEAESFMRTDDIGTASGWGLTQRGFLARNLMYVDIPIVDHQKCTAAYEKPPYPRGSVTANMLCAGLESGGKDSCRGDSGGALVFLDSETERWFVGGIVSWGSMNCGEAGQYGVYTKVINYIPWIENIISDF
T1 sequence (O00187 287-444 partner limits assumed): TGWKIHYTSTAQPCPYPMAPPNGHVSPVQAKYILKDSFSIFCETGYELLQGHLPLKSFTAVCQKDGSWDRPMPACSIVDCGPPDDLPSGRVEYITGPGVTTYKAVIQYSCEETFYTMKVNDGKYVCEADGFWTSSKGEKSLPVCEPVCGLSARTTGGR
As to the kind of experiment: Enzymatic Assay for MASP-2 (fluorogenic substrate). In kind it is biochemical. The conditions noted are these: room temperature, 20 mM HEPES pH 7.4, 140 mM NaCl, 0.1% Tween 20, 20 min. The procedure: Enzymatic Assay for MASP-2
The MASP-2 assay utilizes a fluorogenic substrate, based on the cleavage site for its natural substrate C2. The assay is run at room temperature in an assay buffer containing 20 mM HEPES, pH 7.4, 140 mM NaCl and 0.1% Tween 20. Assay parameters are adjusted such that the assay is linear with respect to time, enzyme, and substrate concentrations. Under these optimized assays conditions, IC50 values are equivalent to Ki values, except in a few cases of “tight binding” inhibitors. Cases of “tight binding” or possible “slow binding” inhibitors are handled by the methods described in Copeland R. A. (2013) Evaluation of Enzyme Inhibitors in Drug Discovery. 2nd Ed., John Wiley and Sons, Inc., Chapters 5-7.
The MASP-2 assay protocol is carried out as follows. Test compounds are serially diluted in DMSO and then 100 nL of each dilution is transferred to the assay plate(s). 10 μL of Assay Buffer is added, followed by 15 μL of Enzyme MASP-2 (CCP1-CCP2-SP) in Assay Buffer. 15 μL of Substrate in Assay Buffer is then added and mixed to start the reactions. After 20 min at room temperature, 15 μL of a stop solution (0.1 M acetic acid) is added, mixed and the plates are read on a SpectraMax i3× Microplate Reader and exported as Excel files. Each assay plate included a “no inhibitor” (DMSO Only) control, a “no enzyme” control and a reference inhibitor control. % Activity values=100*(average test comp. fluorescence-average “no enzyme” fluorescence)/(average “DMSO only” fluorescence-average “no enzyme” fluorescence). IC50 and Ki values are very reproducible, falling well within ±2-fold.
On to `N=C(N)c1ccc(CNC(=O)[C@@H]2C[C@@H](c3ccccc3)CN2C(=O)[C@H](N)CCc2ccccc2)cc1` [Compound I-11, (2S,4S)-1-((R)-2-amino-4-phenylbutanoyl)-N-(4-carbamimidoylbenzyl)-4-phenylpyrrolidine-2-carboxamide dihydrochloride], for which the pKi was more than 6.30.
The same measure for `COC(=O)[C@@H]1C[C@@H](C(=O)NCc2ccc(C(=N)N)cc2)N(C(=O)[C@H](N)CCc2ccccc2)C1` [Compound I-1, Methyl (3R,5S)-1-((R)-2-amino-4-phenylbutanoyl)-5-((4-carbamimidoylbenzyl)carbamoyl)pyrrolidine-3-carboxylate ditrifluoroacetate]: more than 6.30; for `COC[C@H]1C[C@@H](C(=O)NCc2ccc(C(=N)N)cc2)N(C(=O)[C@H](N)CCc2ccccc2)C1` [Compound I-2, (2S,4S)-1-((R)-2-amino-4-phenylbutanoyl)-N-(4-carbamimidoylbenzyl)-4-(methoxymethyl)pyrrolidine-2-carboxamide dihydrochloride]: more than 6.30.
As to `N#C[C@H]1C[C@@H](C(=O)NCc2ccc(C(=N)N)cc2)N(C(=O)[C@H](N)CCc2ccccc2)C1` [Compound I-6, (2S,4S)-1-((R)-2-amino-4-phenylbutanoyl)-N-(4-carbamimidoylbenzyl)-4-cyanopyrrolidine-2-carboxamide ditrifluoroacetate], the pKi is more than 6.30.
The same measure for `N=C(N)c1ccc(CNC(=O)[C@@H]2CC(n3cccn3)CN2C(=O)[C@H](N)CCc2ccccc2)cc1` (stereo partly drawn) [Compound I-22, Dihydrochloride]: more than 6.30; for `N=C(N)c1ccc(CNC(=O)[C@@H]2C[C@H](c3ccccc3)CN2C(=O)[C@H](N)CCc2ccccc2)cc1` [Compound I-3, (2S,4R)-1-((R)-2-amino-4-phenylbutanoyl)-N-(4-carbamimidoylbenzyl)-4-phenylpyrrolidine-2-carboxamide dihydrochloride]: more than 6.30.
